“And” between values parts separate entries of the source, which are not always exact repeats. Equal entries are not always repeated. “Also recorded” adds a separate entry of the source. Where two headings read alike, the source gives them in different places.
Assays:
aminoacylated tRNA = assay: tRNA aminoacylation in HEK293 cells (acid/urea gel, Northern blot); format: cell-based, human; settings: HEK293, insulin stimulation with 2-deoxyglucose
Protocol: Briefly, total RNA was isolated from serum-starved HEK293 cells directly or after insulin stimulation with or without 2-deoxyglucose or amino acid starvation. As a control marker, tRNA was […] by mild alkaline hydrolysis in 0.1 M Tris-HCl (pH 8.0) at 75° C. for 5 min. After resolution on an acid/urea gel (Enriquez et al., in Methods Enzymol., Acad. Press, San Diego, vol. 264, pp. 183.), tRNA was visualized with ethidium bromide staining. Expression levels and phosphorylation state of endogenous S6K1 and 4E-BP1 were also measured from serum-starved cells, stimulated with insulin in the presence or absence of amino acids in the media essentially as described in Example 1.
To further test this finding, selected tRNAs were examined by Northern blot analysis of the tRNA resolved by acid/urea gel electrophoresis as described above. The individual tRNA species were probed after electrotransfer to nylon membrane, with radiolabelled oligonucleotides specific for tRNALeu and tRNAHis, namely: tRNALeu 5′-GCGCCTTAGACCGCTCGGCCACG-3′ (SEQ ID NO:1); tRNAHis 5′-GGTGCCGTGACTCGGATTCGAACCG-3′ (SEQ ID NO:2); and tRNAThr 5′-GCG AGA AAT GM CTC GCG-3′ (SEQ ID NO:3).

Protein Kinase B (PKB) = assay: Insulin-induced HA-PKB activation (S473 phosphorylation, in vitro H2B phosphorylation); format: cell-based, human; settings: 100 mM 2-deoxyglucose, 20 nM rapamycin or 100 nM wortmannin
Protocol: (§1) Transiently-transfected, HA-tagged PKB activation was measured in vitro using histone 2B (H2B) as substrate (Franke et al., 1995, Cell 81, 727) after immunoprecipitation from serum-starved cells extracted directly or after insulin stimulation with or without the addition of 100 mM 2-deoxyglucose, 20 nM rapamycin or 100 nM wortmannin. Rapamycin and wortmannin were added to serum-starved cells 30 min prior to insulin-stimulation. HA-PKB expression and S473 phosphorylation were measured essentially as described above. HA-MAPK kinase activity toward using myelin basic protein (MBP) was measured from serum-starved cells extracted directly or after 100 nM TPA stimulation in the presence or absence of 20 nM rapamycin or 100 mM 2-deoxyglucose for 30 min (N. Pullen et al., 1998).

[1] = tested on: Mitogen-Activated Protein Kinase (MAPK); assay: TPA-induced HA-MAPK activation (MBP phosphorylation); format: cell-based, human; settings: 100 nM TPA, 100 mM 2-deoxyglucose, 30 min
Protocol: as §1

[2] = tested on: HEK293 cells (intracellular ATP); assay: Intracellular ATP levels in HEK293 cells, luciferase-based assay; format: cell-based, human; settings: for ATP levels compared to insulin stimulated control (100%): Example 4; for ATP levels as a percentage of the insulin-stimulated control (100%): mock-transfected HEK293, insulin-stimulated, treated as in Example 1 (100 mM 2-deoxyglucose or 20 mM rotenone, 30 min)
Protocol: Because mTOR is sensitive to glycolitic inhibitors, we wanted to determine whether mTOR is sensitive to alterations in intracellular ATP concentrations. ATP levels were measured from mock-transfected HEK293 cells (using empty vector) treated as in Example 1, using a luciferase-based assay. Retonone and 2-deoxyglucose treatments were carried out on insulin-stimulated cells.
To generate extracts for ATP assays, cells were washed twice with 10 ml ice cold PBS, drained thoroughly, scraped into 1 ml of buffer (100 mM Tris-HCl and 4 mM EDTA pH 7.75) and transferred into an Eppendorf tube before flash freezing in liquid nitrogen. The frozen cells were boiled for 3 min and then placed on ice for 5 min followed by centrifugation at 13,000 rpm for 5 min at 4° C. ATP levels in the extract were measured in a microtiter plate by a Luciferase-based assay (Roche, ATP Bioluminescence Assay Kit CLS II) using a Microlumat LB96P microtiter plate reader (EG&G Berthold). In an illustrative set of experiments and expressing results as a percentage of the insulin-stimulated control (100%), ATP levels increased slightly in insulin treated cells (94% in unstimulated cells), decreased in 2-deoxyglucose treated cells (40-49%) and rotenone-treated cells (75-83%).
(§2) Rapamycin resistance was conferred by fusing glutathione-S-transferase to the NH2-terminus of S6K1 and truncating the COOH-terminus, creating a construct termed GST-ΔC-S6K1 (Pullen et al.,1 998). For the construction of the GST-ΔC-S6K1 (also known as GST-ΔC104-S6K1) and D3E, K100Q-S6K1-GST plasmids, similar cloning strategies were used. S6K1-GST or GST-ΔC-S6K1 from transiently-transfected, serum-starved HEK293 cells were extracted directly or after insulin stimulation with or without the addition of 20 nM rapamycin or 100 nM wortmannin. Kinase activities, expression levels and T389 phosphorylation were carried out essentially as described above. Expression and activity of S6K1-GST or GST-ΔC-S6K1 were measured after insulin stimulation alone or with increasing amounts of 2-deoxyglucose (20, 40 and 100 mM) essentially as described above. Mock-transfected HEK293 cells were treated using the same conditions and extracted for ATP analysis

GST-ΔC-S6K1 = assay: Insulin-induced activation of GST-ΔC-S6K1 (rapamycin-resistant allele) in transfected HEK293 cells; format: cell-based, human; settings: 20 nM rapamycin, 100 nM wortmannin, or 2-deoxyglucose 20, 40 and 100 mM
Excerpt: as §2

S6K1-GST = assay: Insulin-induced activation of S6K1-GST (rapamycin sensitive) in transfected HEK293 cells; format: cell-based, human; settings: 20 nM rapamycin, 100 nM wortmannin, or 2-deoxyglucose 20, 40 and 100 mM
Excerpt: as §2

mTOR (HA-mTORwt) [3] = target: T1, mTOR (HA-mTORwt) (Homo sapiens, UniProt P42345); assay: In vitro T389 kinase activity of HA-mTORwt immunoprecipitated from treated HEK293 cells; format: cell-based; settings: cells treated with 100 mM 2-deoxyglucose; assay with 1 mM ATP, 30 min at 30° C.
T1 construct: expressed in transfected cells; host or cells: HEK293 (anti-HA immunoprecipitate)
Protocol: (§3) Briefly, transiently transfected, hemaglutinin-tagged (HA) wild-type mTOR (HA-mTORwt) from HEK293 cells were serum starved for 16 hours before insulin stimulation. The cells were then treated with (or controls without) 100 mM 2-deoxyglucose or subjected to amino acid starvation as described above. Cell extracts were prepared for immunoprecipitations with a monoclonal anti-HA antibody. The immunocomplex was washed once with 1 M NaCl in assay buffer (30 mM MOPS (pH7.5), 5 mM NaF, 20 mM β-glycerol phosphate, 1 mM dithioerythritol, 0.1% Triton X-100 and 10% glycerol) and twice with assay buffer alone. […] Quantitation for Km measurements was carried out using scanning densitometry and ImageQuant software (Molecular Dynamics).

[4] = tested on: S6K1 (T389 phosphorylation / activation; reporter for mTOR function); assay: Insulin-induced S6K1 activation and T389 phosphorylation in HEK293 cells (reporter for mTOR function); format: cell-based, human; settings: HEK293, 200 nM insulin, 100 mM 2-deoxyglucose or 20 mM rotenone, 30 min
Protocol: Because mTOR is sensitive to amino acids and regulates ribosome biogenesis (Dennis et al., 1999; Gingras et al., 2001; Schmelzle and Hall, 2000), we tested whether its activity may be sensitive to metabolic inhibitors. We used, insulin-induced S6K1 activation and 4E-BP1 phosphorylation as reporters for mTOR function in the presence of glycolytic or mitochohdrial inhibitors to reduce ATP production.
Briefly, human embryonic kidney cells (HEK293) were seeded and maintained as previously described (Pullen et al., Science 279, 707 (1998)). Confluent cells were serum starved for 20 h and then extracted (controls) or treated with 200 nM insulin in the precence or absence of 100 mM 2-deoxyglucose or 20 mM rotenone for 30 min. Cell extraction, kinase assays and Western blot analysis (used to measure S6K1 levels and T389 phosphorylation) were performed as described (Pullen et al.,1998). Phosphospecific antibodies are commercially available (e.g., New England Biolabs).

[5] = tested on: HEK293 cells (amino acid levels); assay: Levels of individual amino acids in extracts of insulin-stimulated HEK293 cells; format: cell-based, human; settings: 100 mM 2-deoxyglucose
Protocol: Levels of individual amino acids were measured in extracts prepared from insulin-stimulated HEK293 cells in the presence or absence of amino acids or with 100 mM 2-deoxyglucose treatment and expressed as a percentage of the insulin-stimulated control in the presence of amino acids. Briefly, confluent cultures of HEK293 cells were treated as described above, washed with PBS and drained thoroughly. The cells were then scraped into […] water and sonicated with four 10 sec pulses. Cell debris was removed by centrifugation and sulfosalicylic acid was added to the supernatant to a final concentration of 2%. The samples were then placed on ice for 30 min followed by centrifugation to remove precipitated proteins. The extracts were then analyzed for amino acid content with a Biochrom 20 plus amino acid analyzer (Amersham-Pharmacia Biotech).

[6] = tested on: 4E-BP1 (S65 phosphorylation; mTOR-mediated site); format: cell-based, human
Protocol: Transfections were carried out essentially as described by Manteuffel et al., 1997, Mol Cell. Biol. 17, 5426 with the 4EBP-1 construct described therein. The expression and phosphorylation of transiently-transfected HA-4E-BP1 was measured using a polyclonal anti-HA antibody and phosphospecific antibody against S65, respectively, essentially as described above (Pullen et al., 1998). The anti-HA antibody was obtained from a commercial source (Santa Cruz Biotechnology, Inc). The mTOR-mediated phosphorylation site in 4E-BP1 is S65.

most protein kinases = settings: read-out: Km for ATP of most cellular kinases; cited from earlier work
mTOR (HA-mTORwt) [7] = target: T1, mTOR (HA-mTORwt); assay: mTOR in vitro kinase activity at varying ATP concentrations (apparent Km for ATP); format: biochemical; settings: S6K1 T389 phosphorylation, ATP 0.2-3.0 mM
Protocol: as §3
Next, we measured mTOR activity in vitro at ATP concentrations that approached physiological levels of 1-5 mM In mammalian cells (Gribble et al., 2000, J.Biol.Chem. 275, 30046).

[8] = insulin stimulated HEK293 transfected with HA-4E-BP1, Western blot
[9] = summary: S6K1 T389 and 4E-BP1 S65 in insulin-stimulated HEK293

Question: For `O=CC[C@@H](O)[C@H](O)[C@H](O)CO` [2-deoxyglucose], which “effect on total amounts of aminoacylated tRNA” value (aminoacylated tRNA) is on record?
Answer: Its value is “Neither insulin stimulation nor 2-deoxyglucose treatment had an effect”.

Question: What about the “insulin-induced activation of PKB, as judged by S473 phosphorylation and in vitro phosphorylation of H2B” value (Protein Kinase B (PKB)) of the same compound?
Answer: Its value is “did not inhibit”.

Question: What about the “TPA-induced MAPK activation, as judged by MBP phosphorylation” value [1] of the same compound?
Answer: The value was “no discernable effect”.

Question: What about the “ATP levels compared to insulin stimulated control (100%)” value ([2]; 20 nM 2-deoxyglucose (so in the source)) of the same compound?
Answer: The value was 57-59%.

Question: And the “ATP levels compared to insulin stimulated control (100%)” value ([2]; 40 nM 2-deoxyglucose (so in the source))?
Answer: The value was 43-48%.

Question: What about the “ATP levels compared to insulin stimulated control (100%)” value ([2]; 100 nM 2-deoxyglucose (so in the source)) of the same compound?
Answer: The value was 32-36%.

Question: And the “ATP levels as a percentage of the insulin-stimulated control (100%)” value [2]?
Answer: Its value is 40-49%.

Question: What about the “insulin-induced phosphorylation/activation of GST-ΔC-S6K1” value (GST-ΔC-S6K1) of the same compound?
Answer: Its value is “unaffected”.

Question: And the “insulin-induced phosphorylation/activation of S6K1-GST” value (S6K1-GST)?
Answer: Its value is “reduced insulin-induced activation of S6K1-GST”.

Question: And the “effect on kinase activity of mTOR in vitro towards T389 of S6K1” value (mTOR (HA-mTORwt) [3])?
Answer: Its value is “no effect”.

Question: What about the “inhibition of insulin-induced S6K1 T389 phosphorylation and S6K1 activation (S6 phosphorylation)” value [4] of the same compound?
Answer: The value was “reducing phosphorylation/activation to background levels; also recorded: blocked insulin-induced activation of S6K1”.

Question: And the “amino acid levels (Ala, Glu, Leu, Ile and Val) as a percentage of the insulin-stimulated control in the presence of amino acids” value [5]?
Answer: The value was 100-120%.

Question: What about the “inhibition of 4E-BP1 S65 phosphorylation” value [6, 8] of the same compound?
Answer: The value was “inhibit 4EBP-1 S65 phosphorylation to background levels”.

Question: What about the “inhibition of phosphorylation of mTOR targets (summary of Example 1)” value [6, 9] of the same compound?
Answer: The value was “able to reduce phosphorylation of mTOR targets to background levels”.

Question: For `Nc1ncnc2c1ncn2[C@@H]1O[C@H](COP(=O)(O)OP(=O)(O)OP(=O)(O)O)[C@@H](O)[C@H]1O` [ATP], which Km (most protein kinases) is on record?
Answer: The Km was 10 to 20 µM.

Question: What about the Km (mTOR (HA-mTORwt) [7]) of the same compound?
Answer: The Km was ≥ 1000 µM and 1000 µM.

Question: For `O=C(O)CI` [iodoacetic acid], which “inhibition of 4E-BP1 S65 phosphorylation” value [6] is on record?
Answer: Its value is “more efficient than dinitrophenol”.

Question: And the “inhibition of phosphorylation of mTOR targets (summary of Example 1)” value [6]?
Answer: Its value is “able to reduce phosphorylation of mTOR targets to background levels”.

Question: With `CO[C@H]1C[C@@H]2CC[C@@H](C)[C@@](O)(O2)C(=O)C(=O)N2CCCC[C@H]2C(=O)O[C@H]([C@H](C)C[C@@H]2CC[C@@H](O)[C@H](OC)C2)CC(=O)[C@H](C)/C=C(\C)[C@@H](O)[C@@H](OC)C(=O)[C@H](C)C[C@H](C)/C=C/C=C/C=C/1C` [rapamycin] as the compound, how does the “insulin-induced activation of PKB, as judged by S473 phosphorylation and in vitro phosphorylation of H2B” value (Protein Kinase B (PKB)) read?
Answer: Its value is “did not inhibit”.

Question: What does the source list for `C=C(C)[C@H]1Cc2c(ccc3c2O[C@@H]2COc4cc(OC)c(OC)cc4[C@@H]2C3=O)O1` [rotenone]?
Answer: ATP levels as a percentage of the insulin-stimulated control (100%) [2]: 75-83%; inhibition of insulin-induced S6K1 T389 phosphorylation and S6K1 activation (S6 phosphorylation) [4]: inhibitory effect; inhibition of 4E-BP1 S65 phosphorylation [6, 8]: inhibitory effect; inhibition of phosphorylation of mTOR targets (summary of Example 1) [6, 9]: able to inhibit phosphorylation of mTOR targets
